Reference: patent publication US6828348B2, “L-ascorbic acid-2-o-maleic acid-a-tocopherol diester 1-propanol adduct and process for producing the same” (Senju Pharmaceutical Co., Ltd., priority 2002, dated 2004)
Read-outs that look alike come from different tables or passages of the source.

Key:
[1] = 4 weeks, liquid chromatography
Procedure: The experimental conditions are as follows:
Detector: Ultraviolet absorptiometer (wave length: 220 nm)
Column: A stainless steel tube of 6 mm ID and 15 cm length being packed with octadecylated silica gel of […] in particle size designed for use in liquid chromatograph.
Mobile phase: As prepared by dissolving 0.4 g of crystalline sodium dihydrogenphosphate and 0.3 g of sodium chloride in 50 ml of water, and adding 500 ml of methanol and 450 ml of acetonitrile, followed by addition of phosphoric acid to adjust to pH 4.0.
Flow rate: As regulated so that the retention time may be about 12 min.

[2] = target: T1, elastase originated from human white blood cells (Homo sapiens, UniProt P08246); assay: Elastase inhibitory activity (fluorogenic synthetic substrate); assay type: biochemical
T1 construct: elastase originated from human white blood cells; from tissue; host or cells: human white blood cells
T1 sequence (P08246 30-247 limits assumed): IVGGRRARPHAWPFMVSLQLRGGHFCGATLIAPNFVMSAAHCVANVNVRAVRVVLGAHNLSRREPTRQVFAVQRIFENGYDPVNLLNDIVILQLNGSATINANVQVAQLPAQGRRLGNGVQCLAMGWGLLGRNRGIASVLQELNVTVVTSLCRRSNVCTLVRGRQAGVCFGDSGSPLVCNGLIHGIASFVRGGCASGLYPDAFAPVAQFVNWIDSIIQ
Source text: are the reversibly extensible, highly elastic protein that is principal constituent of elastic fibers to maintain the extensibility and elasticity of the skin. […] are degraded and synthesized in the sustainable manner, thus acting to maintain the extensibility and elasticity of the skin, but may lose their extensibility and elasticity, when the rate of their degradation by elastase owing to aging, etc. exceeds the rate of their synthesis. Accordingly, inhibition of the elastase enables the skin to maintain its extensibility and elasticity. Such being the case, the Compound of the present invention is tested for its elastase inhibitory activity in the following manner: […] Testing method […]

Row | Molecule | Residual ratio ([1]; storage at 4° C.) [%] | Residual ratio ([1]; storage at 40° C.) [%] | Residual ratio ([1]; storage at 50° C.) [%] | Elastase inhibitory activity (in words) ([2]; 0.01 to 1 mM, Table 2) | Ratio of elastase inhibition ([2]; test specimen 0.01 mM) | Ratio of elastase inhibition ([2]; test specimen 0.1 mM) | Ratio of elastase inhibition ([2]; test specimen 1 mM)
1 | CCO.Cc1c(C)c2c(c(C)c1OC(=O)/C=C\C(=O)OC1=C(O)[C@@H]([C@@H](O)CO)OC1=O)CCC(C)(CCCC(C)CCCC(C)CCCC(C)C)O2 (stereo partly drawn) [Reference Example 1, L-Ascorbic acid-2-O-maleic acid-α-tocopherol diester.ethanol adduct] | 99.7 | 90.9 | 81.7 | – | – | – | –
2 | L-Ascorbic acid-2-O-maleic acid-α-tocopherol diester.1-propanol adduct [Example 1] | – | – | – | remarkable elastase inhibitory activity | 4 | 19 | 71
